Reference: ChEMBL document CHEMBL3885861, “Open TG-GATES”

Species on record: Rattus norvegicus
Test: Open TG-GATES - Regimen: Daily Repeat
Format: toxicity, organism-based, Sprague-Dawley
Design: regimen Daily Repeat, gender Male, age 6 weeks
Settings: in vivo, po, 0 mg/kg, route gavage, dose level Control; for APTT / Bas / Eos / Fbg / Hb / Ht / Lym / MCH / MCHC / MCV / Mono / Neu / PT / Plat / RBC / Ret / WBC: tissue Blood; for KIDNEY_L / KIDNEY_R / KIDNEY_TOTAL: tissue Kidney; for LIVER: tissue Liver; for ALP / ALT / AST / BUN / CRE / Ca / DBIL / GLC / IP / K / LDH / Na / PL / RALB / TBIL / TC / TG / TP / gamma-GTP: tissue Plasma

`CSc1ccc2c(c1)N(CCC1CCCCN1C)c1ccccc1S2` (stereo not drawn) [THIORIDAZINE] showed a TERMINAL_BW (72 h, time 3 day) of 237.9 g, an APTT (72 h, time 3 day) of 16.6 s and a Bas (72 h, time 3 day) of 0%. The Eos (72 h, time 3 day) was 1%, the Fbg (72 h, time 3 day) was 215.2 mg/dL and the Hb (72 h, time 3 day) was 13.7 g/dL. The Ht (72 h, time 3 day) was 40.7%, the Lym (72 h, time 3 day) was 78% and the MCH (72 h, time 3 day) was 21.7 pg. It also gave an MCHC (72 h, time 3 day) of 33.7%, an MCV (72 h, time 3 day) of 64.4 fL and a Mono (72 h, time 3 day) of 8.4%. It also gave a Neu (72 h, time 3 day) of 13%, a PT (72 h, time 3 day) of 11.9 s and a Plat (72 h, time 3 day) of 107.7 x10_4/uL. The RBC (72 h, time 3 day) was 631.6 x10_4/ul, the Ret (72 h, time 3 day) was 8.1% and the WBC (72 h, time 3 day) was 120 x10_2/uL. The KIDNEY_L (72 h, time 3 day) was 1.1 g, the KIDNEY_R (72 h, time 3 day) was 1.1 g and the KIDNEY_TOTAL (72 h, time 3 day) was 2.2 g. The LIVER (72 h, time 3 day) was 12 g, the ALP (72 h, time 3 day) was 821.6 IU/L and the ALT (72 h, time 3 day) was 37 IU/L. It also gave an AST (72 h, time 3 day) of 63.8 IU/L, a BUN (72 h, time 3 day) of 16.6 mg/dL and a CRE (72 h, time 3 day) of 0.5 mg/dL. For the same compound, the Ca (72 h, time 3 day) was 11.1 mg/dL, the DBIL (72 h, time 3 day) was 0.034 mg/dL and the GLC (72 h, time 3 day) was 193.4 mg/dL. The IP (72 h, time 3 day) was 9.3 mg/dL, the K (72 h, time 3 day) was 5.2 meq/L and the LDH (72 h, time 3 day) was 95 IU/L. For the same compound, the Na (72 h, time 3 day) was 139.4 meq/L, the PL (72 h, time 3 day) was 159.6 mg/dL and the RALB (72 h, time 3 day) was 4.2 g/dL. It also gave a TBIL (72 h, time 3 day) of 0.4 mg/dL, a TC (72 h, time 3 day) of 87 mg/dL and a TG (72 h, time 3 day) of 88.2 mg/dL. It also gave a TP (72 h, time 3 day) of 6 g/dL, a gamma-GTP (72 h, time 3 day) of 1.2 IU/L and a TERMINAL_BW ([…], time 7 day) of 272.6 g. The TERMINAL_BW ([…], time 14 day) was 326.5 g, the TERMINAL_BW ([…], time 28 day) was 411.3 g and the APTT ([…], time 7 day) was 15.1 s. For the same compound, the Bas ([…], time 7 day) was 0%, the Eos ([…], time 7 day) was 0.6% and the Fbg ([…], time 7 day) was 241.2 mg/dL. For the same compound, the Hb ([…], time 7 day) was 13.9 g/dL, the Ht ([…], time 7 day) was 41.7% and the Lym ([…], time 7 day) was 83%. The MCH ([…], time 7 day) was 21.7 pg, the MCHC ([…], time 7 day) was 33.3% and the MCV ([…], time 7 day) was 65 fL. The Mono ([…], time 7 day) was 6.2%, the Neu ([…], time 7 day) was 10.2% and the PT ([…], time 7 day) was 11.6 s. For the same compound, the Plat ([…], time 7 day) was 100.8 x10_4/uL, the RBC ([…], time 7 day) was 642.4 x10_4/ul and the Ret ([…], time 7 day) was 5.4%. It also gave a WBC ([…], time 7 day) of 141.4 x10_2/uL, an APTT ([…], time 14 day) of 16.8 s and a Bas ([…], time 14 day) of 0%. For the same compound, the Eos ([…], time 14 day) was 0.6%, the Fbg ([…], time 14 day) was 243.4 mg/dL and the Hb ([…], time 14 day) was 14.4 g/dL. The Ht ([…], time 14 day) was 42.9%, the Lym ([…], time 14 day) was 78.4% and the MCH ([…], time 14 day) was 20.6 pg. The MCHC ([…], time 14 day) was 33.5%, the MCV ([…], time 14 day) was 61.5 fL and the Mono ([…], time 14 day) was 6.4%. The Neu ([…], time 14 day) was 14.6%, the PT ([…], time 14 day) was 11.5 s and the Plat ([…], time 14 day) was 106.3 x10_4/uL. The RBC ([…], time 14 day) was 697.6 x10_4/ul, the Ret ([…], time 14 day) was 4.5% and the WBC ([…], time 14 day) was 129.7 x10_2/uL. It also gave an APTT ([…], time 28 day) of 18.1 s, a Bas ([…], time 28 day) of 0% and an Eos ([…], time 28 day) of 0.6%. It also gave a Fbg ([…], time 28 day) of 234.6 mg/dL, a Hb ([…], time 28 day) of 15.2 g/dL and a Ht ([…], time 28 day) of 45.5%. For the same compound, the Lym ([…], time 28 day) was 83.4%, the MCH ([…], time 28 day) was 19.8 pg and the MCHC ([…], time 28 day) was 33.4%. For the same compound, the MCV ([…], time 28 day) was 59.2 fL, the Mono ([…], time 28 day) was 7.6% and the Neu ([…], time 28 day) was 8.2%. It also gave a PT ([…], time 28 day) of 11.8 s, a Plat ([…], time 28 day) of 98 x10_4/uL and an RBC ([…], time 28 day) of 769.4 x10_4/ul. It also gave a Ret ([…], time 28 day) of 3%, a WBC ([…], time 28 day) of 131.4 x10_2/uL and a KIDNEY_L ([…], time 7 day) of 1.2 g. The KIDNEY_R ([…], time 7 day) was 1.2 g, the KIDNEY_TOTAL ([…], time 7 day) was 2.4 g and the KIDNEY_L ([…], time 14 day) was 1.3 g. The KIDNEY_R ([…], time 14 day) was 1.3 g, the KIDNEY_TOTAL ([…], time 14 day) was 2.6 g and the KIDNEY_L ([…], time 28 day) was 1.5 g. For the same compound, the KIDNEY_R ([…], time 28 day) was 1.5 g, the KIDNEY_TOTAL ([…], time 28 day) was 2.9 g and the LIVER ([…], time 7 day) was 13.4 g. For the same compound, the LIVER ([…], time 14 day) was 15.6 g, the LIVER ([…], time 28 day) was 18.7 g and the ALP ([…], time 7 day) was 973 IU/L. For the same compound, the ALT ([…], time 7 day) was 32.4 IU/L, the AST ([…], time 7 day) was 65 IU/L and the BUN ([…], time 7 day) was 18.2 mg/dL. For the same compound, the CRE ([…], time 7 day) was 0.5 mg/dL, the Ca ([…], time 7 day) was 11.4 mg/dL and the DBIL ([…], time 7 day) was 0.016 mg/dL. For the same compound, the GLC ([…], time 7 day) was 181.2 mg/dL, the IP ([…], time 7 day) was 9 mg/dL and the K ([…], time 7 day) was 5.2 meq/L. It also gave an LDH ([…], time 7 day) of 149.4 IU/L, a Na ([…], time 7 day) of 141.6 meq/L and a PL ([…], time 7 day) of 175 mg/dL. For the same compound, the RALB ([…], time 7 day) was 4 g/dL, the TBIL ([…], time 7 day) was 0.3 mg/dL and the TC ([…], time 7 day) was 89.2 mg/dL. It also gave a TG ([…], time 7 day) of 140.8 mg/dL, a TP ([…], time 7 day) of 5.9 g/dL and a gamma-GTP ([…], time 7 day) of 1.4 IU/L. It also gave an ALP ([…], time 14 day) of 864.8 IU/L, an ALT ([…], time 14 day) of 33.4 IU/L and an AST ([…], time 14 day) of 57.2 IU/L. The BUN ([…], time 14 day) was 19 mg/dL, the CRE ([…], time 14 day) was 0.5 mg/dL and the Ca ([…], time 14 day) was 10.8 mg/dL. It also gave a DBIL ([…], time 14 day) of 0.014 mg/dL, a GLC ([…], time 14 day) of 189.8 mg/dL and an IP ([…], time 14 day) of 8 mg/dL. It also gave a K ([…], time 14 day) of 4.9 meq/L, an LDH ([…], time 14 day) of 96.8 IU/L and a Na ([…], time 14 day) of 139.8 meq/L. For the same compound, the PL ([…], time 14 day) was 163.6 mg/dL, the RALB ([…], time 14 day) was 4.1 g/dL and the TBIL ([…], time 14 day) was 0.3 mg/dL. The TC ([…], time 14 day) was 71.8 mg/dL, the TG ([…], time 14 day) was 200.4 mg/dL and the TP ([…], time 14 day) was 6.3 g/dL. For the same compound, the gamma-GTP ([…], time 14 day) was 0.8 IU/L, the ALP ([…], time 28 day) was 618.8 IU/L and the ALT ([…], time 28 day) was 34.6 IU/L. It also gave an AST ([…], time 28 day) of 62 IU/L, a BUN ([…], time 28 day) of 20.4 mg/dL and a CRE ([…], time 28 day) of 0.6 mg/dL. It also gave a Ca ([…], time 28 day) of 10.7 mg/dL, a DBIL ([…], time 28 day) of 0 mg/dL and a GLC ([…], time 28 day) of 191.4 mg/dL. It also gave an IP ([…], time 28 day) of 6.7 mg/dL, a K ([…], time 28 day) of 4.5 meq/L and an LDH ([…], time 28 day) of 135.2 IU/L. The Na ([…], time 28 day) was 139.4 meq/L, the PL ([…], time 28 day) was 170.8 mg/dL and the RALB ([…], time 28 day) was 4.1 g/dL. The TBIL ([…], time 28 day) was 0.3 mg/dL, the TC ([…], time 28 day) was 87.4 mg/dL and the TG ([…], time 28 day) was 186.2 mg/dL. The TP ([…], time 28 day) was 6.5 g/dL.
